Laboratory results taken from patent publication US8062678B2, “Extractive of Piper laetispicum C.DC., its process and its uses” (priority 2004, dated 2011).

What was measured:
[1] = molecular target: T1, MAO-A in mouse brain (Mus musculus, UniProt Q64133); test: Inhibition of monoamine oxidase A in the brains of mice; type: in vivo; conditions: 25 mg/kg; mouse brain after 14 days; x ± SD, n = 10
T1 construct: from tissue; host or cells: mouse brain
T1 sequence (Q64133 1-526): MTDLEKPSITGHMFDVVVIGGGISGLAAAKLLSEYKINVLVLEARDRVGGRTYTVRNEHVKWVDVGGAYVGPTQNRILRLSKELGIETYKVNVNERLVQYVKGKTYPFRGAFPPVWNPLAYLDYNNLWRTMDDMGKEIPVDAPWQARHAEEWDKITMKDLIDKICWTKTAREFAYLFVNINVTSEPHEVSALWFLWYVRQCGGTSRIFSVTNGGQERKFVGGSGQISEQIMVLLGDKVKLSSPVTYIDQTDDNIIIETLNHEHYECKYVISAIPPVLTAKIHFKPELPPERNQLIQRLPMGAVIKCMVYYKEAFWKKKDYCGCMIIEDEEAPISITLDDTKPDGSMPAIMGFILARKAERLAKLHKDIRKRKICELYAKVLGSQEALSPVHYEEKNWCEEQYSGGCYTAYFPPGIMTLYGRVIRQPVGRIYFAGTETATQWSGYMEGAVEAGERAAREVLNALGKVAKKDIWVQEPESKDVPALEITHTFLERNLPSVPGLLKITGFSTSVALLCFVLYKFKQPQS
Text: (§1) The biological function of monoamine oxidase (MAO) lies in its adjustment of the level for in vivo endogenous amines (noradrenaline, dopamine and 5-hydroxytryptamine) and exogenous amine substances. Based on its substrate and its inhibitor specificity, monoamine oxidase can be divided into two types (MAO-A and MAO-B). Dopamine and tyramine are two MAO substrates, 5-HT and noradrenaline are Type A substrates, while β-phenethylamine and benzylamine are Type B substrates, and iprazid and tranylcypromine are nonselective inhibitors for MAO.
(§2) The mice are randomized into groups, and based on Table 6, intragastric administration of the corresponding doses of test Drug A (Sample 1-1 in Case of Implementation 1) is performed for each of the groups, which are administered once a day consecutively for 14 days, and normal saline is used as a control at the same time, and the positive control is paxil. One (1) hour after the last administration, the animals are put to death through neck dislocation, and the brain is immediately taken for testing MAO activity.

[2] = molecular target: T2, MAO-B in mouse brain (Mus musculus, UniProt Q8BW75); test: Inhibition of monoamine oxidase B in the brains of mice; type: in vivo; conditions: 25 mg/kg; mouse brain after 14 days; x ± SD, n = 10
T2 construct: from tissue; host or cells: mouse brain
T2 sequence (Q8BW75 1-520): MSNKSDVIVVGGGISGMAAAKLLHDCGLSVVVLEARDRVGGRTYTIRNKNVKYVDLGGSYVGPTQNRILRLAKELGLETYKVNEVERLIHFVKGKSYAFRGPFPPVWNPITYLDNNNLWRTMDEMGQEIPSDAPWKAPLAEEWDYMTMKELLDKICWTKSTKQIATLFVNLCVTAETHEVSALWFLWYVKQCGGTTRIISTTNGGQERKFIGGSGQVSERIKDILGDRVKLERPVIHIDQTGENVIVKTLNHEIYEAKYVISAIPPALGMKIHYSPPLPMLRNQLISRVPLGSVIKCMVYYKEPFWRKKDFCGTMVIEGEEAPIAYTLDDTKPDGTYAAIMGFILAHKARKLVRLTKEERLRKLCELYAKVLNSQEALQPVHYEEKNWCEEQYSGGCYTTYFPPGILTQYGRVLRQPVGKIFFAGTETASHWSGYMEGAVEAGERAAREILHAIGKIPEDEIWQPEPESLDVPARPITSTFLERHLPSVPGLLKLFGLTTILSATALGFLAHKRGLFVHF
Text: as §1, §2

[3] = test system: rat brain synaptosome (re)uptake of dopamine (3H-DA); test: Inhibition of brain synaptosome uptake of dopamine; type: biochemical; conditions: positive control drug 1 mM; 3H-DA 300 nM, 37° C.; lower CPM = more inhibition
Text: The physiological mechanism for the […] and dopaminergic functions is similar to that for 5-hydroxytryptamine. Clinically, there are many antidepressant drugs that can block the reuptake of noradrenaline and/or 5-hydroxytryptamine and/or dopamine.
First of all, the method of Whittaker et al (Whittaker V P & Barker L A. The subcellular tractionation of brain tissue with special reference to the preparation of synaptosomes and their component organelles. In: Fried R. ed. In Methods in Neurochemistry, Vol. New York: Marcel Dakker, Inc, 1972) is referred to for preparing brain synaptosome, and the specific procedures are: decapitate the rat and take out the cerebrum quickly, place it in precooled normal saline, and remove cerebral pia mater and vascular tissues. Take cerebral cortex, and place it in cold sugar solution. Use ultrasonic cell disruptor for producing homogenate and centrifuging to obtain refined brain synaptosome for future use. […]

[4] = test system: mouse; test: Mouse swimming test; type: in vivo; conditions: 30 mg/kg/d intragastric, 14 days, within 4 minutes, x ± s, n = 10
Procedure: The despair test as put forth by Porsolt et al can serve as the evaluation model for the effects of antidepressant drugs. In this model, a mouse or a rat is placed in a limited and inescapable space for swimming, and the animal can be induced to have motionless status. Such status is a reflection of the animal's despair, and the status can be inhibited by some effective antidepressant drugs.
One (1) hour after the drug is administered on Day 14, the animal is placed into a 10×20 cm glass cylinder with water depth at 8˜10 cm and water temperature at 22˜24° C. Beginning from the 2nd minute, the accumulated time of motionless status within 4 minutes is recorded, and the results are as shown in Table 7.

[5] = test system: mouse; test: Mouse tail suspension test; type: in vivo; conditions: 50 mg/kg/d intragastric, 14 days, within 6 minutes, x ± s, n = 10
Text: The tail suspension test is a simple and easy experimental method introduced by Stern et al in 1985 for evaluation of antidepressant drugs. […] Clinically effective antidepressant drugs can reduce the motionless time of the mouse after it cannot successfully escape through its efforts following being suspended at the tail.
The mice are randomized into groups, and each of the groups receives intragastric administration of the corresponding dose of Drag A (Sample 1-1 in Case of Implementation 1), B (Sample 10 in Case of Implementation 1), C (Sample 7 in Case of Implementation 1), D (Sample 3 in Case of Implementation 1) and E (Sample 5 in Case of Implementation 1), which is administered once a day consecutively for 14 days, and normal saline is used as control at the same time, and positive control is Venlafaxine. One (1) hour after the drug is administered for the last time, the mouse tail suspension test is performed, the duration is 6 minutes, and the stationary and motionless time within the 6 minutes is recorded, and the results are as shown in Table 9.

[6] = test system: rat; test: Rat swimming test; type: in vivo; conditions: 30 mg/kg/d intragastric, 14 days, 5 minutes swimming, x ± s, n = 10
Procedure: After having fasted for 4 hours, the rats are placed in a 40×18 cm glass cylinder with water depth at 15 cm (water temperature at 25° C.) for swimming for 15 minutes, and are dried with a hot blower. Then, based on Table 8, the rats are randomized into 6 groups, and each of the groups receives intragastric administration of the corresponding dose of Drug A (Sample 1-1 in Case of Implementation 1) and B (Sample 10 in Case of Implementation 1), which is administered once a day consecutively for 14 days, and normal saline is used as control at the same time, and positive control is Venlafaxine. One (1) hour after the drug is administered for the last time, the rat swimming test begins, the swimming time is 5 minutes, and the motionless time during the 5 minutes for which they are swimming is recorded, and the results are as shown in Table 8.

[7] = test system: rat brain synaptosome (re)uptake of noradrenaline (3H-NA); test: Inhibition of brain synaptosome uptake of noradrenaline; type: biochemical; conditions: positive control drug 0.1 mM; 3H-NA 300 nM, 37° C.; lower CPM = more inhibition
Procedure: 10 μl of substrate (^3H-5HT, ^3H-NA or ^3H-DA; final reaction concentration: 300 nM) is added in a 4° C. environment and is thoroughly mixed, and the tubes are placed in a 37° C. water bath for a warm bath for 5 minutes. After that, precooled Tris-Krebs buffer is added into each tube to terminate reaction, and the multichannel cell harvestor is immediately used for sucking filtration through fiberglass filter membrane, and the same solution in the same volume is used to wash tubes and filter. The filter membrane is removed and oven dried. The filter membrane is placed in the scintillation vial, methylbenzene scintillation fluid is added, and counting is performed with the β-liquid scintillation counter.

[8] = test system: mouse; test: Analgesic effect, writhing test; type: in vivo; conditions: 50 mg/kg; benzoquinone i.p. 30 minutes after drug; within 10 minutes; x ± s, n = 10
Procedure: A chemical stimulant with definite solvents and at a definite concentration is injected into the abdominal cavity of the mouse to stimulate splanchnoderm and peritoneum parietale so as to cause deep, large-area and long-time inflammatory pain and result in behavioral reactions in the mouse such as concaving the abdomen, extending the trunk and back limbs and raising the buttocks, which are called the writhing response. […]
The mice are randomized into groups, and are respectively given test drugs based on Table 12, namely Drug A (Sample 1-1 in Case of Implementation 1), C (Sample 7 in Case of Implementation 1) and B (Sample 10 in Case of Implementation 1), and normal saline is used as control at the same time, and positive control group is acetyl salicylic acid. The mice are respectively injected intraperitoneally with 0.20 ml of 0.02% benzoquinone water solution 30 minutes later, and are immediately placed into a box with four sides sealed, and, beginning from the first occurrence of writhing responses in the mice, time is kept for 10 minutes, and the number of writhing responses in the mice is recorded within 10 minutes thereafter, and the results are as shown in Table 12.

[9] = test system: mouse; test: Anti-anxiety effect, mouse four board test; type: in vivo; conditions: 1 mg/kg/d; 30 minutes after drug; within 10 minutes; x ± s, n = 8
Procedure: The mice are randomized into groups, and are respectively given test drugs based on Table 10, namely Drug A (Sample 1-1 in Case of Implementation 1), B (Sample 10 in Case of Implementation 1), C (Sample 7 in Case of Implementation 1), F (Sample 9 in Case of Implementation 1) and G (Sample 11 in Case of Implementation 1), and normal saline is used as control, and positive control group is diazepam. The mouse is placed on the boards 30 minutes after the drug is administered, and is made to explore for 15 seconds. After that, whenever the mouse moves from one board to another board, one electric shock is given with amperage at 0.35 mA and duration time at 0.5 s. The mouse should present an obvious escape response because of this, and usually moves across 2 boards or 3 boards, if the mouse continues to run, no electric shock is given for […] thereafter.

Fc1ccc([C@@H]2CCNC[C@H]2COc2ccc3c(c2)OCO3)cc1 [Paxil]
MAO-A (OD) [1]: 0.012 ± 0.005 OD | MAO-B (OD) [2]: 0.025 ± 0.008 OD | Inhibition of Monoamine Uptake (CPM) Dopamine [3]: 1197 CPM

CNCCC(Oc1ccc(C(F)(F)F)cc1)c1ccccc1 (stereo not drawn) [Fluoxetine]
Accumulated Motionless Time [4]: 73.7 ± 17.2 s

COc1ccc(C(CN(C)C)C2(O)CCCCC2)cc1 (stereo not drawn) [Venlafaxine]
Accumulated Motionless Time [5]: 57.5 ± 43.0 s | Accumulated Motionless Time [6]: 211.2 ± 24.7 s

CNCCCN1c2ccccc2CCc2ccccc21 [Desipramine]
Inhibition of Monoamine Uptake (CPM) Noradrenaline [7]: 1499 CPM

CC(=O)Oc1ccccc1C(=O)O [acetyl salicylic acid]
Accumulated Number of Writhing Responses [8]: 9.89 ± 1.09

CN1C(=O)CN=C(c2ccccc2)c2cc(Cl)ccc21 [diazepam]
Accumulated Number of Electric Shocks [9]: 12.78 ± 2.05
